Like-named read-outs stand apart in the source and are kept apart here.
How the values were obtained:
HT-1080 cells = experiment: Cytotoxicity of daunorubicin micelles compared to free daunorubicin, 72 hours, Cell-Titer Glo; assay type: cell-based; conditions: Homo sapiens, HT-1080, 72 h
Experimental: (§1) All cell lines were obtained from ATCC (Manassas, Va.). Media and supplements were obtained from Cell Gro (Manassas, Va.). HT-1080 cells were maintained in Eagle's Minimum Essential Medium supplemented with 10% FBS, 2 mM L-Glutamine, 1 mM sodium pyruvate, and 100 units/mL of penicillin and streptomycin. […] Cells were treated in triplicate. […] It should be noted that the IC50 values of the daunorubicin micelles are very similar to free daunorubicin.

786-0 cells = experiment: as above; assay type: cell-based; conditions: Homo sapiens, 786-0, 72 h
Experimental: as §1

SKOV-3 cells = experiment: as above; assay type: cell-based; conditions: Homo sapiens, SK-OV-3, 72 h
Experimental: as §1

MG-63 cells = experiment: as above; assay type: cell-based; conditions: Homo sapiens, MG-63, 72 h
Experimental: as §1

[1] = Rat pharmacokinetics of daunorubicin micelles compared to free daunorubicin (Example 54); assay type: in vivo, Fisher rats; conditions: plasma
Experimental: The delivery vehicle for drug administration was isotonic saline.
This study was repeated, and the micelles were injected in the same rats seven days after the first injection. The pharmacokinetic results are shown in the table below, and graphed in FIG. 22.

[2] = rat, in vivo, iv, 10 mg/kg
Experimental: The delivery vehicle for drug administration was isotonic saline. Rat blood was collected from the catheter into K2-EDTA tubes […] at time points of 1, minute, 5 minutes, 15 minutes, 1 hour, 4 hours, 8 hours and 24 hours. Plasma was isolated by centrifugation at 1000 RPM for 5 minutes, and 150 uL of extraction solution (ice cold methanol/100 ng/mL daunorubicin internal standard) was added to 50 uL of each plasma sample. Samples were then vortexed for 10 minutes, centrifuged at 13,000 RPM for 10 minutes, and 150 uL of the supernatant is transferred to HPLC vials for analysis.
(§2) Samples were analyzed on a Waters Alliance 2695 equiped with a 2475 fluorescence detector (Ex=470 nm; Em=580). A 5 μL sample injection was made onto a Waters 4 μm Nova Pak C18 (3.9×150 mm) at 30° C. with a flow rate of 0.750 mL per minute of 10 mM phosphate buffer (pH=1.4), methanol and acetonitrile (gradient from 70/10/20 to 40/10/50 for buffer/methanol/acetonitrile was made over eight minutes).

[3] = Pharmacokinetics of crosslinked DOX loaded micelles in mice (Example 29); conditions: athymic nude mice, 15 mg/kg fast IV bolus tail vein, plasma doxorubicin
Experimental: Athymic nude mice were injected with 15 mg/kg of either doxorubicin, crosslinked dox loaded micelles (IT-143, Example 24), or dox loaded micelles (Example 23) by a fast IV bolus into the tail vein with an injection volume of 0.2-0.4 mL. The delivery vehicle for drug administration was isotonic saline. Mouse blood was collected from mice into K2-EDTA tubes by heart puncture at time points of 5 minutes, 15 minutes, 1 hour, and 4 hours. Plasma was isolated by centrifugation at 1000 RPM for 5 minutes, and 150 uL of extraction solution (ice cold methanol/100 ng/mL daunorubicin internal standard) was added to 50 uL of each plasma sample. Samples are then vortexed for 10 minutes, centrifuged at 13,000 RPM for 10 minutes, and 150 uL of the supernatant is transferred to HPLC vials for analysis.
as §2

SMILES | IC50 (HT-1080 cells) [nM] | IC50 (786-0 cells) [nM] | IC50 (SKOV-3 cells) [nM] | IC50 (MG-63 cells) [nM] | Cmax ([1]; Fisher rats, 10 mg/kg fast IV bolus, Day 0 (first injection)) [ng/mL] | AUC ([1]; Fisher, rat, intravenous, 10 mg/kg, repeat experiment, same rats seven days after the first injection) [ng·h/mL] | Cmax ([1]; Fisher, rat, intravenous, 10 mg/kg, repeat experiment, same rats seven days after the first injection, read-out: Cmax) [ng/mL] | AUC [2] [ng·h/mL] | Cmax [2] [ng/mL] | AUC [3] [ng·h/mL] | Cmax [3] [ng/mL] | T½ [3] [h]
COc1cccc2c1C(=O)c1c(O)c3c(c(O)c1C2=O)C[C@@](O)(C(C)=O)C[C@@H]3O[C@H]1C[C@H](N)[C@H](O)[C@H](C)O1 [Daunorubicin, daunorubicin] | 546 ± 57 | 231 ± 11 | 200 ± 12 | 231 ± 11 | 3290 | 3540 | 10600 |  |  |  |  | 
COc1cccc2c1C(=O)c1c(O)c3c(c(O)c1C2=O)C[C@@](O)(C(=O)CO)C[C@@H]3O[C@H]1C[C@H](N)[C@H](O)[C@H](C)O1 [Free Dox, doxorubicin] |  |  |  |  |  |  |  | 2610 | 9760 | 200 | 210 | 5.4

Reference: patent US8629186B2, “Polymer micelles containing anthracyclines for the treatment of cancer” (Intezyne Technologies, Inc., priority 2009, dated 2014)
